Experimental data reported in the supplement of paper PMC10307832.

Key:
Test in all cases: relative viability (nuclei count vs DMSO), 5 days (fraction); higher = more cells survive
Pazopanib + Palbociclib = compound: Cc1ccc(Nc2nccc(N(C)c3ccc4c(C)n(C)nc4c3)n2)cc1S(N)(=O)=O [Pazopanib] + CC(=O)c1c(C)c2cnc(Nc3ccc(N4CCNCC4)cn3)nc2n(C2CCCC2)c1=O [Palbociclib] (partner 0.5 µM)
In short: (§1)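 Each reported value is a median over duplicate plates. It expresses relative viability: treated-well nuclei count divided by vehicle-well nuclei count. Lung cancer cell lines in 1536-well plates were dosed by pin tool a day after seeding, alone with one drug or with a fixed anchor-drug dose plus five library-drug doses (not always all listed) in √10 steps, and nuclei were counted after 5 days.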

Ponatinib + Linsitinib = compound: Cc1ccc(C(=O)Nc2ccc(CN3CCN(C)CC3)c(C(F)(F)F)c2)cc1C#Cc1cnc2cccnn12 [Ponatinib] + C[C@]1(O)C[C@@H](c2nc(-c3ccc4ccc(-c5ccccc5)nc4c3)c3c(N)nccn32)C1 [Linsitinib] (partner 1 µM)
In short: as §1

Ponatinib + Bortezomib = compound: Cc1ccc(C(=O)Nc2ccc(CN3CCN(C)CC3)c(C(F)(F)F)c2)cc1C#Cc1cnc2cccnn12 [Ponatinib] + CC(C)C[C@H](NC(=O)[C@H](Cc1ccccc1)NC(=O)c1cnccn1)B(O)O [Bortezomib] (partner 0.002 µM)
In short: as §1

Pazopanib + Dasatinib = compound: Cc1ccc(Nc2nccc(N(C)c3ccc4c(C)n(C)nc4c3)n2)cc1S(N)(=O)=O [Pazopanib] + Cc1nc(Nc2ncc(C(=O)Nc3c(C)cccc3Cl)s2)cc(N2CCN(CCO)CC2)n1 [Dasatinib] (partner 0.075 µM)
In short: as §1

Row | Cell Line | relative viability (Pazopanib + Palbociclib; first compound 0.03162 µM) | relative viability (Pazopanib + Palbociclib; first compound 0.1 µM) | relative viability (Pazopanib + Palbociclib; first compound 0.3162 µM) | relative viability (Pazopanib + Palbociclib; first compound 1 µM) | relative viability (Ponatinib + Linsitinib; first compound 0.002 µM) | relative viability (Ponatinib + Linsitinib; first compound 0.006325 µM) | relative viability (Ponatinib + Linsitinib; first compound 0.06325 µM) | relative viability (Ponatinib + Linsitinib; first compound 0.2 µM) | relative viability (Ponatinib + Bortezomib; first compound 0.002 µM) | relative viability (Ponatinib + Bortezomib; first compound 0.006325 µM) | relative viability (Ponatinib + Bortezomib; first compound 0.06325 µM) | relative viability (Ponatinib + Bortezomib; first compound 0.2 µM) | relative viability (Pazopanib + Dasatinib; first compound 0.01 µM) | relative viability (Pazopanib + Dasatinib; first compound 0.03162 µM) | relative viability (Pazopanib + Dasatinib; first compound 0.1 µM) | relative viability (Pazopanib + Dasatinib; first compound 0.3162 µM) | relative viability (Pazopanib + Dasatinib; first compound 1 µM) | relative viability (Pazopanib + Palbociclib; first compound 0.01 µM)
1 | PC-3 [JPC-3] | 0.556 | 0.341 | 0.522 | 0.519 | 0.981 | 0.984 | 0.992 | 0.956 | 0.826 | 0.812 | 0.961 | 0.815 | 0.991 | 0.939 | 1.11 | 0.939 | 0.983 | 
2 | PC-14 | 0.585 | 0.568 | 0.719 | 0.6 | 0.927 | 0.91 | 1.13 | 1.01 | 0.846 | 0.944 | 1.02 | 0.875 | 0.27 | 0.241 | 0.288 | 0.267 | 0.266 | 0.561
3 | RERF-LC-KJ | 1.03 | 1.07 | 1.09 | 1.04 | 0.842 | 0.907 | 0.914 | 0.827 | 1.06 | 0.988 | 1.2 | 1.15 | 0.836 | 0.773 | 0.915 | 0.722 | 0.765 | 1.11
4 | SK-LU-1 | 0.389 | 0.411 | 0.425 | 0.455 | 0.943 | 1.19 | 1.18 | 0.997 | 1.01 | 1.01 | 0.949 | 0.757 | 0.142 | 0.179 | 0.192 | 0.189 | 0.174 | 0.393
5 | SW 1573 | 0.349 | 0.454 | 0.367 | 0.365 | 0.838 | 0.775 | 0.777 | 0.819 | 0.971 | 1.02 | 1.03 | 0.997 | 0.588 | 0.717 | 0.621 | 0.451 | 0.561 | 0.468
